The source made the active and inactive calls.
Key:
[1] = ATP-based viability loss in HEK293T cells – cell-based, CellTiter-Glo luminescence, cherry-picked samples, set 4, cytotoxicity control, dose response (AID 743441); type: functional; settings: HEK293
[2] = target: T1, Scavenger receptor class B member 1 (Mus musculus, UniProt Q61009); test: mouse SR-BI DiI-HDL transfer blockers – ldlA[mSR-BI] CHO cells, fluorescence plate reader, dry powder, set 9, dose response (AID 623880); type: functional, cell-based
T1 sequence (Q61009 whole entry): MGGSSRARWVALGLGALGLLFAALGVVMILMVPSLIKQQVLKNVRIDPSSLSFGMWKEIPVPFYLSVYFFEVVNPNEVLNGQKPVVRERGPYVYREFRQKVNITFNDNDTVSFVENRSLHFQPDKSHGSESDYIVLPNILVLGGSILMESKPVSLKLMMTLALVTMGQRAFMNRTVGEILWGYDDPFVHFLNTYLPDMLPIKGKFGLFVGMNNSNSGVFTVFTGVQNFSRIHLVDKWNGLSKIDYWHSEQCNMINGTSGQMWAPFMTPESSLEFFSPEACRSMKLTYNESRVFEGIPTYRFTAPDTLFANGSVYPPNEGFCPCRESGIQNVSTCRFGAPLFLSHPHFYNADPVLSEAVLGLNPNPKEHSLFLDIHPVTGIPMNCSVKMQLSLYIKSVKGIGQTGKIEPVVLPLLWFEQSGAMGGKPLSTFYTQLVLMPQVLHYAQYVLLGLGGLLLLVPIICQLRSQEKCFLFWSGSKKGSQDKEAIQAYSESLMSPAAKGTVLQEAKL

[3] = target: T1, Scavenger receptor class B member 1; test: blockers of DiI-HDL lipid transfer via SR-BI – cell-based, ldlA[mSR-BI] CHO, DiI fluorescence, dry powder, set 10, dose response (AID 624029); type: functional
HeLa = test: viability loss in HeLa cells – cell-based, 24 h, cherry-picked samples, cytotoxicity control, dose response (AID 504726); type: functional; settings: Homo sapiens;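 further: potency for cytotoxicity as loss of luminescence signal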
ORF 73 = target: T2, ORF 73 (Human herpesvirus 8, UniProt O40947); test: KSHV LANA DNA-binding disruption – biochemical, fluorescence polarization, cherry-picked samples, dose response (AID 504725); parameters: species or system Human gammaherpesvirus 8;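 further: fluorescence polarization of a labeled DNA duplex reporting LANA DNA binding; potency is for inhibitors that block LANA binding to the DNA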
T2 sequence (O40947 whole entry): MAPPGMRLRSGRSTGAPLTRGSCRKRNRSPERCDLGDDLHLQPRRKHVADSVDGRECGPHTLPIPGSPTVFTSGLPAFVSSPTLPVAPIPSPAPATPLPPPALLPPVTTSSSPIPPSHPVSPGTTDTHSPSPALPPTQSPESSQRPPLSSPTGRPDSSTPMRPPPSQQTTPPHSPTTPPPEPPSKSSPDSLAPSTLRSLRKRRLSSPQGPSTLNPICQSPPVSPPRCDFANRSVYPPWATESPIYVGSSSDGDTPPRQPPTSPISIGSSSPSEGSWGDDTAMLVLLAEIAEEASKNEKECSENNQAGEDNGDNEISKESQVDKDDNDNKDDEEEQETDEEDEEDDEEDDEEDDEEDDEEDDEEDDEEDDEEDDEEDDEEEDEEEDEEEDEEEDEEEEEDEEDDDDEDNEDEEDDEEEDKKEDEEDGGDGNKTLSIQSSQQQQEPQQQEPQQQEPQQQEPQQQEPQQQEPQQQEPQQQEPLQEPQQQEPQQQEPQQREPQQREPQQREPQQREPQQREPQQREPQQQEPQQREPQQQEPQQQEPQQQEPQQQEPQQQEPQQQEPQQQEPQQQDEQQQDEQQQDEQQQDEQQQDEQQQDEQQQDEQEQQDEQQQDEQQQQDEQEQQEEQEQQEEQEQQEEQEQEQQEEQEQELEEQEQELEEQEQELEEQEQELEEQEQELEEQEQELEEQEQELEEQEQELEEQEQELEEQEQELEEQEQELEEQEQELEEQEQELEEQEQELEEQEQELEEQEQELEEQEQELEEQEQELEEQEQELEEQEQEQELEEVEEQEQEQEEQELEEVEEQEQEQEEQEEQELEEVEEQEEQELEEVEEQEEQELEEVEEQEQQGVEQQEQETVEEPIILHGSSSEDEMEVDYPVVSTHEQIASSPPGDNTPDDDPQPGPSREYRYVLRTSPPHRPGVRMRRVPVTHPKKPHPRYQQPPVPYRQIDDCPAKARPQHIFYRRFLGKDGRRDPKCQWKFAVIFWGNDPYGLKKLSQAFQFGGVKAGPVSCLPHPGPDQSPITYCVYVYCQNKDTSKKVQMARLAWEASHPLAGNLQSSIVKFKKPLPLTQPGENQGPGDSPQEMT

Nonstructural protein 1 = Nonstructural protein 1 (Influenza A virus, UniProt Q194T2); type: functional, Influenza A virus (A/California/07/2009(H1N1))
Sequence of Nonstructural protein 1 (Q194T2 whole entry): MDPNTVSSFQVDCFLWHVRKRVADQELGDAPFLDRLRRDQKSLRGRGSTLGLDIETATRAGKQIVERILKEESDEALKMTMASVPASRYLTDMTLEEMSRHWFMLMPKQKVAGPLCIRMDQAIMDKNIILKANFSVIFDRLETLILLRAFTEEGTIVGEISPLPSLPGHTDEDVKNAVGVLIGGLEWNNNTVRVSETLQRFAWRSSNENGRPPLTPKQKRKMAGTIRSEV

[4] = viability loss in HeLa cells – cytotoxicity control for MgcRacGAP inhibitor project, dose response (AID 624300); type: functional
[5] = target: T3, Rac GTPase-activating protein 1 (Homo sapiens, UniProt Q9H0H5); test: blockers of MgcRacGAP-driven Rac1 GTP hydrolysis – biochemical, ADP Hunter fluorescence, primary and confirmatory, confirmation (AID 624330); type: functional
T3 sequence (Q9H0H5 whole entry): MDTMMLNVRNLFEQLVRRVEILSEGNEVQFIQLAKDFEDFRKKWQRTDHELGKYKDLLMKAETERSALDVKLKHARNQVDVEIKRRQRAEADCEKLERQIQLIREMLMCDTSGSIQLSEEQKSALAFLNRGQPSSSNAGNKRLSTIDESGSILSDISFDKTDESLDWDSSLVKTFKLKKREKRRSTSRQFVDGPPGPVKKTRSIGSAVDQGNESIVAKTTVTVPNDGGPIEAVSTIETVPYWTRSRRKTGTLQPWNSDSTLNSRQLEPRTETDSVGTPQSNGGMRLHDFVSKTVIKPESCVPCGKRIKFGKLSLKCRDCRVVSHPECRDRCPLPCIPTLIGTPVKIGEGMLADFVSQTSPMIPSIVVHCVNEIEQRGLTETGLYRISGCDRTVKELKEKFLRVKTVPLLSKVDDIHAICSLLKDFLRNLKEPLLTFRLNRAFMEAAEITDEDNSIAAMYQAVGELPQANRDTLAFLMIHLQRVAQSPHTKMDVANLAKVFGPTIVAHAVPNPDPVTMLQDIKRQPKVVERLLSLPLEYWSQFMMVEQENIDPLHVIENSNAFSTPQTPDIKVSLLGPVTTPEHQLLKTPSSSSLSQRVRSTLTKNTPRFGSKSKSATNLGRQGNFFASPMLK

[6] = target: Matrix metalloproteinase-14 (Homo sapiens, UniProt P50281); test: Dose Response confirmation of uHTS hits for a small molecule inhibitors of MT1-MMP activation in a fluorescence assay set 2.; type: functional
Caspase-6 = target: T4, Caspase-6 (Homo sapiens, UniProt P55212); test: inhibition of CASP6 peptide cleavage – biochemical, VEID-R110 fluorescence, cherry-pick, dose response (AID 720632)
T4 sequence (P55212 whole entry): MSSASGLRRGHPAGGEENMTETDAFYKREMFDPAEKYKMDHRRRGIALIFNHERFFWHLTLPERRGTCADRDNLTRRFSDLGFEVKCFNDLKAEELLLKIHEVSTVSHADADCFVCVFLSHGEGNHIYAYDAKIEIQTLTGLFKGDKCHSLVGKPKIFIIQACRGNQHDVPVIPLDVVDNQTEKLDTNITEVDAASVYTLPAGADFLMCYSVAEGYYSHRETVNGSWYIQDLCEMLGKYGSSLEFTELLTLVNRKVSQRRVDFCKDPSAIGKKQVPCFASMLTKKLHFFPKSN

[7] = target: T5, Histone-lysine N-methyltransferase NSD2 (Homo sapiens, UniProt O96028); type: biochemical
T5 sequence (O96028 whole entry): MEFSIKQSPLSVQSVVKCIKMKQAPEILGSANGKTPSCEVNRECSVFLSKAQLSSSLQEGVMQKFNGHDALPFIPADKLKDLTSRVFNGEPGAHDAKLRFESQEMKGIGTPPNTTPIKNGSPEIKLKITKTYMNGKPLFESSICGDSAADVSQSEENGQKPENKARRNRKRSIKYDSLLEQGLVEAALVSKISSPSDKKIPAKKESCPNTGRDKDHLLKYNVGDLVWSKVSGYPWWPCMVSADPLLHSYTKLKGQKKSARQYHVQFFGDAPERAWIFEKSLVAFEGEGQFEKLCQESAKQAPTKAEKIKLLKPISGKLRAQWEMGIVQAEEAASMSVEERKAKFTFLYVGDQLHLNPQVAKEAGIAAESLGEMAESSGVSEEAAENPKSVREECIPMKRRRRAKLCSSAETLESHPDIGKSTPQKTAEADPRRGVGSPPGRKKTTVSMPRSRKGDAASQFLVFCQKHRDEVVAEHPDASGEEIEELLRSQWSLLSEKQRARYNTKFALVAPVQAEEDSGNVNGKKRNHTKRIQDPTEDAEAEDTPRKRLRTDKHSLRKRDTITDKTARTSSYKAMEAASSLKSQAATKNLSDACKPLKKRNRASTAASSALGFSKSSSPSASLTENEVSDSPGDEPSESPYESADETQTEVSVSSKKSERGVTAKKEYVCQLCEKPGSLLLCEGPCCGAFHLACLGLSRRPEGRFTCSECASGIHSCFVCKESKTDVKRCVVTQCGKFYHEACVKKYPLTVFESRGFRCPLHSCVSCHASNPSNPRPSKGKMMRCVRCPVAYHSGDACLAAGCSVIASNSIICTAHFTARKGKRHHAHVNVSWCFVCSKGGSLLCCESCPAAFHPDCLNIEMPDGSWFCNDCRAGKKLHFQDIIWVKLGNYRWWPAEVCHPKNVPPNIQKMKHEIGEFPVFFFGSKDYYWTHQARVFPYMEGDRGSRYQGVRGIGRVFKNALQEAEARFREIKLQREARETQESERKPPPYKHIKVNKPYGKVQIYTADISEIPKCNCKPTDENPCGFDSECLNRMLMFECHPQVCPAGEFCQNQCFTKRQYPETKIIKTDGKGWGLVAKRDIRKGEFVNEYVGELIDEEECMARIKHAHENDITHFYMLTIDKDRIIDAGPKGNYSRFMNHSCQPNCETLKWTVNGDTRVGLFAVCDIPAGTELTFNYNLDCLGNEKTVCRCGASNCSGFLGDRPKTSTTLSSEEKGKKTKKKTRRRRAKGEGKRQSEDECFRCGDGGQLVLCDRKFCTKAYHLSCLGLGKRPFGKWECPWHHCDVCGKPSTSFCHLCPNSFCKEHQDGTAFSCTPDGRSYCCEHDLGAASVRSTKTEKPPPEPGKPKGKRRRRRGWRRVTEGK

cells = settings: HEK293
[8] = target: Metabotropic glutamate receptor 3 (Rattus norvegicus, UniProt P31422); test: inhibition of rat mGlu3 glutamate signaling – HEK/GIRK cells, thallium flux, dose response (AID 651839); type: functional
Sequence of Metabotropic glutamate receptor 3 (P31422 whole entry): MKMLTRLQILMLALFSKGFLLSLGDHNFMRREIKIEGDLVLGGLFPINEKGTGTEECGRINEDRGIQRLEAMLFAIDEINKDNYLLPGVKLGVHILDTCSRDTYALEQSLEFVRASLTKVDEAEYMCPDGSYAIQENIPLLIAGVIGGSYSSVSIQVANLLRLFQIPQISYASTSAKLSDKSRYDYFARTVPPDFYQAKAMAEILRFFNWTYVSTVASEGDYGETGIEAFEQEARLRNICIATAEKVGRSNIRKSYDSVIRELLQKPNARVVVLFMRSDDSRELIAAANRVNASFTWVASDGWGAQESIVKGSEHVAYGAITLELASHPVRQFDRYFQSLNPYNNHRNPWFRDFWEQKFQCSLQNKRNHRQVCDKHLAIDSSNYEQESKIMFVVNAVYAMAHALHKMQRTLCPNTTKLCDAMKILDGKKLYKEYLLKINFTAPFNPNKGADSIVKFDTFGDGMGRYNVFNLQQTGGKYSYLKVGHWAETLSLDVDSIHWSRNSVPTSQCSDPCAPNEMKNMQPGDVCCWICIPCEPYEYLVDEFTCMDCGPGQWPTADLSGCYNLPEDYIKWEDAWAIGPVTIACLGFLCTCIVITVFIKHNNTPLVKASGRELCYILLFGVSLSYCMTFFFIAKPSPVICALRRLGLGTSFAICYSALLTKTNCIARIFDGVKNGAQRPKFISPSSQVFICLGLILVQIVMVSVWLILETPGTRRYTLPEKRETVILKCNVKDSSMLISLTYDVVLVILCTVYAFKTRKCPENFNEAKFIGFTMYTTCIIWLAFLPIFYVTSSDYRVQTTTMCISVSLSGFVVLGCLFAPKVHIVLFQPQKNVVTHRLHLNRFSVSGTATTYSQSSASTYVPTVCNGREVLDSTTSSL

[9] = Mycobacterium tuberculosis BioA enzyme inhibitor Measured in Biochemical System Using Plate Reader - 2163-02_Inhibitor_Dose_DryPowder_Activity.
[10] = potency of ADAM10 substrate cleavage blockers – biochemical, QFRET, dose response (AID 743254);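 further: ADAM10 enzyme with the DM2 quenched FRET peptide as substrate; EDANS fluorescence gain as the protease cuts the substrate; inhibitor potency against ADAM10 proteolytic activity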
[11] = target: 1-phosphatidylinositol 4,5-bisphosphate phosphodiesterase gamma-1 (Homo sapiens, UniProt P19174); test: Counterscreen for inhibitors of phospholipase C isozymes (PLC-B3): Fluorescence-based biochemical high throughput dose response assay to identify inhibitors of phospholipase C isozymes (PLC-gamma1).
Sequence of 1-phosphatidylinositol 4,5-bisphosphate phosphodiesterase gamma-1 (P19174 whole entry): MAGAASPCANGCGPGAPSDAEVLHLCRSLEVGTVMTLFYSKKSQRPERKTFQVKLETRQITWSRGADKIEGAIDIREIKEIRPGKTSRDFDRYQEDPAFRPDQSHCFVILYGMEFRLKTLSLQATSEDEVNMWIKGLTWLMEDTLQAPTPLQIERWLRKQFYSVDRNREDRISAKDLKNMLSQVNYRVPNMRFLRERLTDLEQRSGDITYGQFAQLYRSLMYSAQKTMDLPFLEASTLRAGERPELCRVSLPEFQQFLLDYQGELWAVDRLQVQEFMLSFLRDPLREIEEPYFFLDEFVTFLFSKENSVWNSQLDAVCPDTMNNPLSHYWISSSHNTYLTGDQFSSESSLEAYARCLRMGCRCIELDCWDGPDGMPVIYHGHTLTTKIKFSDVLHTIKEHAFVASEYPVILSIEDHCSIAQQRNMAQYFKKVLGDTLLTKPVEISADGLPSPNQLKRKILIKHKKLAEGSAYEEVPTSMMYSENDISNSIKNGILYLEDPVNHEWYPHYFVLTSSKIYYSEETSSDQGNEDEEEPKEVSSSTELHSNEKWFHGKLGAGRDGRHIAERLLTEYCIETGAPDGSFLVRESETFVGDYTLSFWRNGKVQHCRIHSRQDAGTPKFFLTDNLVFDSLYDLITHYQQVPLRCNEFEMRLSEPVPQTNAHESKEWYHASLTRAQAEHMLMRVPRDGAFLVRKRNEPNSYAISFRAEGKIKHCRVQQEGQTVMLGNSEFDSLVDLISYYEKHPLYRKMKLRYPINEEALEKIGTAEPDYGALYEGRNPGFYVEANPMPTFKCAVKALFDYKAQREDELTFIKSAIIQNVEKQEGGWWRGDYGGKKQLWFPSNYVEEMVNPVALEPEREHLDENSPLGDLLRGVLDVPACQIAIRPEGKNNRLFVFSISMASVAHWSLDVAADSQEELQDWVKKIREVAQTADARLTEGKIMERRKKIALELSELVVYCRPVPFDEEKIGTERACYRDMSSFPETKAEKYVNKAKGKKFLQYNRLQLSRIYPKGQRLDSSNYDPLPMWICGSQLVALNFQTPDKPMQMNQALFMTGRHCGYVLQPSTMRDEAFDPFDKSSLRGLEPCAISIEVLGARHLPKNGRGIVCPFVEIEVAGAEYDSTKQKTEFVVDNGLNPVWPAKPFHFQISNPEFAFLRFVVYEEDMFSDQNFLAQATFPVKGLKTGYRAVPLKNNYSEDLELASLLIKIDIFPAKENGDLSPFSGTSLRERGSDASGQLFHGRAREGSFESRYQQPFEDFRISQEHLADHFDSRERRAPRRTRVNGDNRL

[12] = target: 1-phosphatidylinositol 4,5-bisphosphate phosphodiesterase beta-3 (Homo sapiens, UniProt Q01970); test: Fluorescence-based biochemical high throughput dose response assay to identify inhibitors of phospholipase C isozymes (PLC-B3).
Sequence of 1-phosphatidylinositol 4,5-bisphosphate phosphodiesterase beta-3 (Q01970 whole entry, the tested form may be a part): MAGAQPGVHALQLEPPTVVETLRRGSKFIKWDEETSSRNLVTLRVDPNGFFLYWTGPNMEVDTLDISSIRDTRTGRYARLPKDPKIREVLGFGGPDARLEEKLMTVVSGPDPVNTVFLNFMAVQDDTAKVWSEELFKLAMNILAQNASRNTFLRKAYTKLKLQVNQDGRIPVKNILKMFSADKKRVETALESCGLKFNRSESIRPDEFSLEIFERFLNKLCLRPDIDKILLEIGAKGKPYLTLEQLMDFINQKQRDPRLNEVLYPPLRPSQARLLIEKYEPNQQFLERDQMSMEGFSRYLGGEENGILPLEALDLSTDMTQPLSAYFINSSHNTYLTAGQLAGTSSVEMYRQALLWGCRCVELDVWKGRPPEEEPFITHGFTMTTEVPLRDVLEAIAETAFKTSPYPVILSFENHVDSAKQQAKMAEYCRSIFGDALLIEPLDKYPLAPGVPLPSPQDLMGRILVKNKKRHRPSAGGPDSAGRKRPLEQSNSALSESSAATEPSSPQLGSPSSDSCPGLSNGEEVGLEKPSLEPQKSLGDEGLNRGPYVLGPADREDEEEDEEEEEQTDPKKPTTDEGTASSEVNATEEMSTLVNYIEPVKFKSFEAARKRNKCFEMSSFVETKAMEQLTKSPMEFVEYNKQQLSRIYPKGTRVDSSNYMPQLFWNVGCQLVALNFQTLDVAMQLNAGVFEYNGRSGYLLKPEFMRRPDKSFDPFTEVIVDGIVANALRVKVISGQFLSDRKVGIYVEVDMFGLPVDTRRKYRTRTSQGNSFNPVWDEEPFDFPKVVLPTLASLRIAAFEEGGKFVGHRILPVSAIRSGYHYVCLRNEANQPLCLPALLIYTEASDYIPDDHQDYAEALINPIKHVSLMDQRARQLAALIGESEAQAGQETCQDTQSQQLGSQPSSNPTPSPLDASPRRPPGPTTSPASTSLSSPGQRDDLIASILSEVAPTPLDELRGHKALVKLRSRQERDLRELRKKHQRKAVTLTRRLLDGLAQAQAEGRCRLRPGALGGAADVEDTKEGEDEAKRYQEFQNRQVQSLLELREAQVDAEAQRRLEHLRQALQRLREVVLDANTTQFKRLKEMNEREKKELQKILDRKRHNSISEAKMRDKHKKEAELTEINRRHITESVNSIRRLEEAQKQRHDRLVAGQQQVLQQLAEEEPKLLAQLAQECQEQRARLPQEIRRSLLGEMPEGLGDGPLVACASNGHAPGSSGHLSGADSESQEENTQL

[13] = target: Disintegrin and metalloproteinase domain-containing protein 17 (Homo sapiens, UniProt P78536); test: inhibition of ADAM17 substrate cleavage – biochemical, quenched FRET substrate, counter-screen for ADAM10 exosite inhibitor project, dose response (AID 743253)
Sequence of Disintegrin and metalloproteinase domain-containing protein 17 (P78536 whole entry, the tested form may be a part): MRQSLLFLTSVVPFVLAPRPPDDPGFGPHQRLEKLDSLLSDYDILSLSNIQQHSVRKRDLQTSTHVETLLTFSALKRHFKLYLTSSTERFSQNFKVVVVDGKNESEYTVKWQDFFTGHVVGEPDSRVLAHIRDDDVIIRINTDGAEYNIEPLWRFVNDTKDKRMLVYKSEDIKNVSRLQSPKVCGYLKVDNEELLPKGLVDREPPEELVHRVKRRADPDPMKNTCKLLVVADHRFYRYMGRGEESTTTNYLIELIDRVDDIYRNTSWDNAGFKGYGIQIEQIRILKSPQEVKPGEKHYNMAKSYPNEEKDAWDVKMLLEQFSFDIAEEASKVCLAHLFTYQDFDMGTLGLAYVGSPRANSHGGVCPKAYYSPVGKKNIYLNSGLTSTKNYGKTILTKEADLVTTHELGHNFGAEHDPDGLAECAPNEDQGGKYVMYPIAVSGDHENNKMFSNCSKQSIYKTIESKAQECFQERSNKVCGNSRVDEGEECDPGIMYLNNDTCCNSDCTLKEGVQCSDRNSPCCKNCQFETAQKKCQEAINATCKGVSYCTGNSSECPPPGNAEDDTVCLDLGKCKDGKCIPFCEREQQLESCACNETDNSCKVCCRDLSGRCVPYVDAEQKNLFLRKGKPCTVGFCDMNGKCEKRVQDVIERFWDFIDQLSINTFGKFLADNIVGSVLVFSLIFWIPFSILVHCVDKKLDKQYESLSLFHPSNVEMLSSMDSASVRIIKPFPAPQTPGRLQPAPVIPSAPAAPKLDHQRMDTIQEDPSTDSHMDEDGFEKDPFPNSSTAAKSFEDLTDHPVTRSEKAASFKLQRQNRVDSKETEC

[14] = viability of PTEN-deleted HCT116 cells – cell-based, HCT116 PTEN knockout, dose response (AID 1047); type: functional;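 further: HCT116 colon tumor cells with PTEN knocked out; cells exposed to compound for 60 hours before readout; potency for loss of cell viability measured by luminescence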
[15] = viability of HCT116 lacking mutant beta-catenin – cell-based, human colon tumor, dose response (AID 1045); type: functional;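 further: HCT116 colon tumor cells with beta catenin knocked out; cells exposed to compound for 60 hours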
[16] = target: T6, Ubiquitin-conjugating enzyme E2 N (Homo sapiens, UniProt P61088); type: functional;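 further: Dose-response confirmation in a TR-FRET assay detecting UBC13-driven polyubiquitin chain formation, inhibition measured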
T6 sequence (P61088 whole entry): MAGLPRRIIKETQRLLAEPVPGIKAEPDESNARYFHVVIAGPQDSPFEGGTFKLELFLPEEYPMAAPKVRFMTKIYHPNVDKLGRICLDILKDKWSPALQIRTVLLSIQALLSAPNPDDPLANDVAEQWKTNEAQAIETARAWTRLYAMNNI

INS1 = test: INS-1E survival protection against cytokine death – cell-based, luminescence, retest, dose response (AID 449756); type: functional; settings: Rattus norvegicus;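 further: cell death triggered by IL-1 beta plus TNF-alpha plus IFN-gamma mixture; protective hits raise ATP signal compared with cytokine alone wells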
[17] = reduction of Shn3 3'UTR-driven luciferase in osteoblasts – cell-based, Clone20 osteoblasts, firefly luciferase, cherry-picked, dose response (AID 624132); type: functional;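 further: firefly luciferase luminescence from reporter carrying the Shn3 3'UTR in osteoblasts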
[18] = loss of viability in HepG2 cells – cell-based, CellTiter-Glo, cherry-picked, cytotoxicity control for Shn3 inhibitor project, dose response (AID 624134); type: functional
[19] = non-specific 3'UTR reporter inhibition in Clone20-Shn3RL – cell-based, Renilla luciferase, cherry-picked, counter-screen for Shn3 inhibitor project, dose response (AID 624133); type: functional
[20] = Shn3 3'UTR reporter signal decrease – cell-based, Clone20 osteoblasts, firefly luciferase, cherry-pick, set 2, Schnurri-3 inhibitor project, dose response (AID 720490); type: functional;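 further: actives lower the luminescence signal as inhibitors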
[21] = EF1alpha-driven Renilla reporter with control 3'UTR suppression – Clone20-Shn3RL cells, dual-Glo, cherry-pick, set 2, counter-screen for Shn3 3'UTR targeting project, dose response (AID 720724); type: functional, cell-based; settings: Dual-Go Shn3RL
[22] = general mammalian cell viability loss – inhibitor set, cherry-pick, set 2, cytotoxicity control for miR-122 modulator project, dose response (AID 720697); type: functional, cell-based
[23] = general mammalian cell viability loss – activator set, cherry-pick, cytotoxicity control for miR-122 modulator project, dose response (AID 720690); type: functional, cell-based;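 further: HEK293T human cells scored for general mammalian cytotoxicity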

CCOc1ccccc1NC(=O)c1ccc2ccccc2c1
AC50 [1]: > 52 µM (inactive)

O=C(O)CC(C(=O)Nc1cccc(C(F)(F)F)c1)C1CCCO1 (centres undefined)
AC50 [2]: 45.4 µM (active) | AC50 [3]: 34.3 µM (active)

O=S(=O)(O)c1cc(O)c(N=Nc2ccc(O)cc2O)c2ccccc12
AC50 (HeLa): 32.4 µM (active) | AC50 (ORF 73): 22.2 µM (active) | IC50 (Nonstructural protein 1): 4.32 µM (active) | CC50 [4]: 100 µM (active) | IC50 [5]: 28.8 µM (active) | IC50 [6]: 20.5 µM (inactive) | AC50 (Caspase-6): 2.16 µM (active) | AC50 [7]: 7.35 µM (active)

Cc1c(C(=O)NCc2ccc(Cl)c(Cl)c2)sc(=O)n1Cc1cccc(F)c1
AC50 (cells): > 52 µM (inactive)

O=C(c1ccc(C#Cc2ccc3c(c2)OCO3)cc1)N1CCCC(CO)C1 (centres undefined)
IC50 [8]: 7.26 µM (active)

Cc1ccc(/C=C(\CC(=O)O)c2nc3ccccc3s2)cc1[N+](=O)[O-]
AC50 [9]: 14.3 µM (active)

CN1C(=O)c2cc(NC(=O)Nc3ccccc3F)ccc2OC[C@H]2O[C@@H](CC(=O)NCc3ccc(-c4ccccc4)cc3)CC[C@@H]21
IC50 [10]: > 69.5 µM (inactive) | IC50 [11]: > 122 µM (inactive) | IC50 [12]: > 122 µM (inactive) | IC50 [13]: > 69.5 µM (inactive)

CCCCNc1cc(C)nc(NCc2ccccc2)n1
EC50 [14]: 4.04 µM (active) | EC50 [15]: 3.96 µM (active) | IC50 [16]: > 20 µM (inactive) | AC50 (INS1): 2.49 µM (active) | AC50 [17]: 0.719 µM (active) | AC50 [18]: 13.8 µM (active) | AC50 [19]: 3.36 µM (active) | AC50 [20]: 1.19 µM (active) | AC50 [21]: 31.1 µM (active) | AC50 [22]: 7.51 µM (active) | AC50 [23]: 10.6 µM (active)

Reference: ChEMBL document CHEMBL1201862, “PubChem BioAssay data set” (2004)
